{"source": "patent US9290464B2", "about": "(priority 2010, dated 2016)", "key": {"[1]": {"test_system": "MAO-B-deficient human neuroblastoma SH-SY5Y cells", "experiment": "Reactive oxygen species (DCF-DA staining) in MPP+-treated cells", "type": "cell-based", "conditions": "2 mM MPP+, 50 nM, 24 hours; FIGS. 19 and 20", "method": "In this embodiment, MAO-B-deficient human neuroblastoma SH-SY5Y cells (Korean Cell Line Bank) were used. The cells were cultured in a DMEM medium at 37° C. with 5% of CO2 for 24 hours. The cultured cells were divided into three groups, 2 mM of MPP^+ was added to each group, one of the three groups was treated with 50 nM of CBI, one of the other two groups was treated with 50 nM of rasagiline, and the three groups were further incubated with 5% of CO2 at 37° C. for 24 hours. The group with only MPP^+ added thereto was incubated under the same conditions as described above. Subsequently, the cells were stained with 2,7-dichlorofluorescein diacetate (DCF-DA), which is a fluorescence dye capable of detecting reactive oxygen species, and then observed using a confocal microscope (Nikon Co., Japan)."}, "6-OHDA-induced rat": {"test_system": "6-OHDA-induced rat", "experiment": "Decrease in neurons of substantia nigra pars compacta in 6-OHDA-induced rat (TH immunohistochemistry and cresyl violet staining)", "type": "in vivo, Wistar rats", "conditions": "FIG. 6", "method": "Wistar rats provided by ORIENT BIO INC. (excipient and CBI n=7, rasagiline n=6; 6-week-old; 20 male rats) were used as an experimental model. One-side injection of 3 μl of a solution containing 20 μg/μl of 6-OHDA was performed on the striatum of each rat (position: front—1.0 mm, rear—3.0 mm, postabdomen side—5.0 mm), thereby inducing the degeneration of neurons in the striatum. […] 4, 5 and 6 weeks after the last day of administration, an apomorphine-induced rotation test was performed on each group. The apomorphine-induced rotation test was performed in such a manner that 0.5 mg/kg of apomorphine was administered to each group of rats via intraperitoneal injection, each group of rats was placed in a rotor chamber, and the rotary movement thereof was recorded for 45 minutes, and thus the number of rotation per minute of each group of rats was measured to determine the average value thereof. In addition, after the apomorphine-induced rotation test performed 6 weeks after the last day of administration, each group of rats was sacrificed, and thus the extent of a decrease in neurons of substantia nigra pars compacta was confirmed using immunohistochemistry staining using an antibody against tyrosine hydroxylase and cresyl violet staining."}, "NGF": {"test_system": "NGF", "experiment": "Amount of NGF mRNA in striatum of mouse without neurotoxin", "type": "in vivo, C57BL/6 mice", "conditions": "1 mg/kg oral once a day for 8 days each; FIG. 15", "procedure": "Next day after the last day of administration, striatum and substantia nigra tissues were taken out of each group of mice. mRNA was extracted from the cell of the taken tissue, and thus the amount of mRNA of NGF was measured by real-time RT-PCR."}, "catalase": {"test_system": "catalase", "experiment": "Activity of catalase in striatum and substantia nigra of mouse", "type": "in vivo, C57BL/6 mice", "conditions": "1 mg/kg oral for 8 days, no neurotoxin, FIG. 22", "procedure": "Next day after the last day of administration, striatum and substantia nigra tissues were taken out of each group of mice. Cell extracts were obtained from the cells of the tissues, and thus the activities of the catalase, SOD and GPx were measured."}, "MPTP-induced mouse": {"test_system": "MPTP-induced mouse", "experiment": "Number of neurites and spines per neuron in MPTP-induced mouse (confocal microscopy)", "type": "in vivo, C57BL/6 mice", "conditions": "1 mg/kg oral once a day for 10 days after MPTP", "method": "To observe whether or not the number of neurites and spines per neuron in the tissues was increased, a coronal slice with a thickness of 200 um containing striatum or substantia nigra was prepared using a vibratome. Each group of mice was sacrificed, and the brain was taken out of each group and then placed in a cold, highly-concentrated sucrose dissection buffer bubbled with carbogen (5% CO2 and 95% O2) (87 mM NaCl, 2.5 mM KCl, 1.25 mM NaH2PO4, 25 mM NaHCO3, 1 mM CaCl2, 3 mM MgCl2, 10 mM dextrose, and 75 mM sucrose). While the vibratome was performed, a slicing chamber was filled with the uniformly carbogenated sucrose dissection buffer. After the slicing process was terminated, all the slices were washed with PBS, and fixed with 4% paraformaldehyde in a PBS solution. The fixed brain slices were placed on a 1.5% agarose (in PBS) block. Images thereof were obtained using a confocal microscope (ZEISS LSM 510 META) by using Zeiss LSM image browser software (Carl Zeiss Microimaging, Germany, version 4.0 SP2)."}, "Bcl-xL": {"test_system": "Bcl-xL", "experiment": "Amount of Bcl-xL protein by western blotting in apoptosis-induced cells", "type": "cell-based, human", "conditions": "serum-free medium, 24 hours; FIG. 11", "text": "Meanwhile, a variety of signal transduction proteins are involved in a process for mediating or inhibiting apoptosis, and representative examples thereof include Bcl-2 gene family proteins (Journal of Bioenergetics and Biomembranes, 37:179-190 (2005); J. Cell Mol. Med., 7:249-257 (2003); Genes and Development, 13:1899-1911 (1999)). Thus, 0.1, 1 and 10 of CBI or 0.1, 1 and 10 of rasagiline were respectively added to the apoptosis-induced cells as described above, the resulting cells were further incubated in 5% of CO2 at 37° C. for 24 hours, mRNA was extracted from the cultured cells or a cell extract was obtained therefrom, and thus the amount of Bcl-2 mRNA and the amounts of Bcl-2 and Bcl-xL proteins were measured. The amount of Bcl-2 mRNA was measured by real-time RT-PCR, and the amounts of Bcl-2 and Bcl-xL proteins were measured by western blotting.\nFor western blotting, the SH-SY5Y cells were lysed with RIPA buffer (50 mM Tris-Cl pH 7.4, 1% NP-40, 0.25% sodium deoxycholate, 0.1% SDS, 150 mM NaCl, 1 mM EDTA) and then centrifuged to obtain a cell extract. […]"}}, "data": [{"smiles": "NC(=O)OCc1cc(-c2ccc(OCc3ccccc3)cc2)no1", "note": "[CBI, carbamic acid 3-(4-benzyloxy-phenyl)-isoxazole-5-yl methylester]", "values": [{"measurement": "reactive oxygen species", "setting": "[1]", "value": "significantly decreased"}, {"measurement": "effect on decrease in neurons compared with rasagiline group", "setting": "6-OHDA-induced rat; 1 mg/kg oral each", "value": "superior effect"}, {"measurement": "extent of a decrease in neurons of substantia nigra pars compacta", "setting": "6-OHDA-induced rat; 1 mg/kg oral, 1 hour before 6-OHDA and once every other day for 6 weeks", "value": "significantly decreased extent of a decrease in neurons"}, {"measurement": "expression of NGF in the striatum compared with rasagiline group", "setting": "NGF", "value": "significantly higher"}, {"measurement": "increase of the activity of the catalase in the striatum", "setting": "catalase", "value": "about 13%"}, {"measurement": "number of neurites", "setting": "MPTP-induced mouse; FIG. 23", "value": "increased"}, {"measurement": "number of spines", "setting": "MPTP-induced mouse; FIG. 24", "value": "recovered to the level of normal cells"}, {"measurement": "amount of Bcl-xL relative to control", "setting": "Bcl-xL", "value": "larger than that in the control"}]}]}
